Tests used:
Assay type in all cases: biochemical
[1] = target: T1, lysyl hydroxylase activity of His-tagged LH3 (Homo sapiens, UniProt O60568); test: Inactivation of lysyl hydroxylase activity by imidazole
T1 construct: human LH1 signal peptide (N, cleaved yes); made in house; host or cells: Sf9 insect cells, baculovirus
T1 sequence (O60568 25-738): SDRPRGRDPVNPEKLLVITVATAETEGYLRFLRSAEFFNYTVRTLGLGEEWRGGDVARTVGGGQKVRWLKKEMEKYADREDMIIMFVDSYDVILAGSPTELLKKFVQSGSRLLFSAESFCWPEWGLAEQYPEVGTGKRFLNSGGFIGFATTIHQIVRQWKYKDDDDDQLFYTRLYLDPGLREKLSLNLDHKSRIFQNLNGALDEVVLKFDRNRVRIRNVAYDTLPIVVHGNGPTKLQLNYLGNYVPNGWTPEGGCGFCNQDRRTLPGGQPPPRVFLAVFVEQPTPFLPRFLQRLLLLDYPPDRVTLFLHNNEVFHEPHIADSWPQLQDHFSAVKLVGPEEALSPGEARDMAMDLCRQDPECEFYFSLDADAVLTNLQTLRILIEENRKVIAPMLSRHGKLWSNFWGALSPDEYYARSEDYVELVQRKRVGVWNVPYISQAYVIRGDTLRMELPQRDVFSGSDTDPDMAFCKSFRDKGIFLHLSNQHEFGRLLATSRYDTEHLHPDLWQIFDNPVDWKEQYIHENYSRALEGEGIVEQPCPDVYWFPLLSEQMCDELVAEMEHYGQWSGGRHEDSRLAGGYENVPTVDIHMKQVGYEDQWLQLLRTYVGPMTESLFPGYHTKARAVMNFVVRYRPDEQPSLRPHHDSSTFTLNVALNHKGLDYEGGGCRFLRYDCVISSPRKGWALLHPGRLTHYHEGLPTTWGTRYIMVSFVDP
Method: (§1) LH activity was assayed by a method based on the hydroxylation-coupled decarboxylation of 2-oxo(1-^14C)glutarate (Kivirikko and Myllylä 1982), synthetic peptide […] was used as a substrate. GGT activity was assayed as described elsewhere (Myllylä et al. 1975). The method is based on the transfer of radioactively (tritium) labelled glucose from UDP-glucose to galactosylhydroxylysyl residues in calf skin gelatin substrate and on the specific assay of the product of the enzyme reaction after alkaline hydrolysis.
(§2) LH3 was expressed in Sf9 cells as a protein with His-tag at the amino-terminus. This enabled us to use nickel column in the purification of the protein from the cell extract of insect cells, because nickel-charged agaroses are developed for the purification of recombinant proteins containing a polyhistidine (6×His) as a tag. […] No lysyl hydroxylase activity could be detected in the eluate, however. We have determined that imidazole is a potent inhibitor of lysyl hydroxylase activity. […] Imidazole in the concentration of 100 mM and 10 mM inactivated lysyl hydroxylase activity by 55% and 20%, respectively.

[2] = target: T2, GGT activity of His-tagged LH3 (Homo sapiens, UniProt O60568); test: Effect of imidazole on GGT activity of His-tagged LH3 from Sf9 cells
T2 construct: human LH1 signal peptide (N, cleaved yes); made in house; host or cells: Sf9 insect cells, baculovirus (pFastBacI, BAC-TO-BAC)
T2 sequence (O60568 25-738): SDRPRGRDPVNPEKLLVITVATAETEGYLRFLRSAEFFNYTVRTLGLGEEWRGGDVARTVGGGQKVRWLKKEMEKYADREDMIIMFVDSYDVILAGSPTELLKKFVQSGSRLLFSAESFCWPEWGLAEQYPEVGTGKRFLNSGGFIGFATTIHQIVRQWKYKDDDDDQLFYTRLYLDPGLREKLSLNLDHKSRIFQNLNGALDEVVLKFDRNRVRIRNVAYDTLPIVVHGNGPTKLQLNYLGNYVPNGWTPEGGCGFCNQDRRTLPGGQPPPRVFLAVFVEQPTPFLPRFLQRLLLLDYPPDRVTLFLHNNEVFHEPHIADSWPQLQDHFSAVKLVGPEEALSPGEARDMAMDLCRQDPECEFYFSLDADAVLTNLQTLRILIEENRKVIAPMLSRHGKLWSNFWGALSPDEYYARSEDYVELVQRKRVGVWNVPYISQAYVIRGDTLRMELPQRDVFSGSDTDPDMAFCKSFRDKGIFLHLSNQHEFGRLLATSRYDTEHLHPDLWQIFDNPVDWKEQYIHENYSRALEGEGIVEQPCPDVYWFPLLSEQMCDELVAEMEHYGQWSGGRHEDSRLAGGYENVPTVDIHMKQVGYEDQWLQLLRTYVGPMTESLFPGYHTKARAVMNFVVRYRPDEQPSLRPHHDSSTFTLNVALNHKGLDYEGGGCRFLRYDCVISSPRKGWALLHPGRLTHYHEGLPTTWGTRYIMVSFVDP
Method: as §1, §2

[3] = target: T3, GT activity of the protein produced in E. coli cells with human LH3 cDNA (Homo sapiens, UniProt O60568); test: Effect of imidazole on GT activity of protein produced in E. coli with human LH3 cDNA
T3 construct: made in house; host or cells: E. coli XL1-Blue (pQE30)
T3 sequence (O60568 25-738): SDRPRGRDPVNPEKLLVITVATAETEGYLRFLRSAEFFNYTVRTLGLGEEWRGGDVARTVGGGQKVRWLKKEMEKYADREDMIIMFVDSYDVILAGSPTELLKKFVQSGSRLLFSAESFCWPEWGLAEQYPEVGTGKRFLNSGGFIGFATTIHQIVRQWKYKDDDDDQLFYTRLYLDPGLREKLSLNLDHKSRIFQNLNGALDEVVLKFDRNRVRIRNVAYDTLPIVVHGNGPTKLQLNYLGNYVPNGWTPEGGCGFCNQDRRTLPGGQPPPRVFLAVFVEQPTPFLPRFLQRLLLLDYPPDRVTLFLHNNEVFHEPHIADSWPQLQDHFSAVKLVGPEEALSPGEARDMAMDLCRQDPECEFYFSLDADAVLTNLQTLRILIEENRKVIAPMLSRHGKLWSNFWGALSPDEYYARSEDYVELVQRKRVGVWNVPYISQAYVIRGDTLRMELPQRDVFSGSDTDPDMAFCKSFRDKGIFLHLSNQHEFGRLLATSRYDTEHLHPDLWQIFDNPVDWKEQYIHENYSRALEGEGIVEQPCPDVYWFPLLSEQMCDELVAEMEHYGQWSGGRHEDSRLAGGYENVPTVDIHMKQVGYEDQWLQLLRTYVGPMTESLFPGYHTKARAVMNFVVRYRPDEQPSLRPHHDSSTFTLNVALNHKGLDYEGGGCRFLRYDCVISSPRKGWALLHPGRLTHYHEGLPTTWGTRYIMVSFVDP
Method: (§3) PFastBacI constructs for human LH1, LH2a, LH2b and LH3 were cleaved with BamHI and Hind III restriction enzymes and coding regions were subcloned into same site in E. coli expression vector pQE30 containing (His)6 tag at the amino terminus. Insert for C. elegans LH (corresponding to amino acids 14-730 in cDNA) was generated by PCR and ligated into SacI-PstI site of pOE30 vector. Constructs were transformed into E. coli XL1-Blue strain. Cultures were grown to OD600 of 0.6 at 37° C. Protein expression was induced by adding 1 mM IPTG and incubation was proceed at 30° C. for 5 hours. Cells were harvested and stored at −20° C. For activity measurements cell pellet was suspended to lysis buffer (0.4 M NaCl, 0.5% Nonident and 20 mM Tris-HCl pH 7.8, at 20° C.) and incubated in the presence of lysozyme (50 μg/ml), DNAase (10 μg/ml) and RNAase (10 μg g/ml) at room temperature for 30 minutes. Lysis was completed by sonication. Cell debris was pelleted and supernatant was used in the measurements.
(§4) GT and GGT activities were measured by a method based on the transfer of radioactively (tritium)-labeled sugar from UDP-sugar to hydroxylysyl or galactosylhydroxylysyl residues in a calf skin gelatin substrate, respectively (Myllylä et al. 1975). The specific detection of the reaction products was performed after alkaline hydrolysis.

[4] = target: T4, GGT activity of the protein produced in E. coli cells with human LH3 cDNA (Homo sapiens, UniProt O60568); test: Effect of imidazole on GGT activity of protein produced in E. coli with human LH3 cDNA
T4 construct: made in house; host or cells: E. coli XL1-Blue (pQE30)
T4 sequence (O60568 25-738): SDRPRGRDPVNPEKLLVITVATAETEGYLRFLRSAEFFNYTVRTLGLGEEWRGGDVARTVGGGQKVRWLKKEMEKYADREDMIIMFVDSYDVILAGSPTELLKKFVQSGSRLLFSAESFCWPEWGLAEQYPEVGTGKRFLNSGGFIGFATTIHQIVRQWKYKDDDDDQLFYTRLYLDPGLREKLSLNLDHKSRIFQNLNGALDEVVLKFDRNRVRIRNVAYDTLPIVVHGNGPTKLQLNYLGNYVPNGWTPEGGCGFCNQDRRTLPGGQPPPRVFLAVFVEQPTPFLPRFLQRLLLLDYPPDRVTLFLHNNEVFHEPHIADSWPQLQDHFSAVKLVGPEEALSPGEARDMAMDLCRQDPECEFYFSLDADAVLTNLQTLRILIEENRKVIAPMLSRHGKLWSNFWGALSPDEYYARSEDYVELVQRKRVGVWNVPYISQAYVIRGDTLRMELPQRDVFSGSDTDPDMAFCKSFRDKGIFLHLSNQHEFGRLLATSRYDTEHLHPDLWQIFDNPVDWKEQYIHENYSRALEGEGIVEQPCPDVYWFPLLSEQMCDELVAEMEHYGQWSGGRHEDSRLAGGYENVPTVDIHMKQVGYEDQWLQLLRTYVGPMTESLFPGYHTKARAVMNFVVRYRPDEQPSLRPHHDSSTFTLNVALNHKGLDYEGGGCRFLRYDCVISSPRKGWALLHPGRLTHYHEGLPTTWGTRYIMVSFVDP
Method: as §3, §4

inactivation of lysyl hydroxylase activity ([1]; 10 mM imidazole): 20% | inactivation of lysyl hydroxylase activity ([1]; 100 mM imidazole): 55% | inactivation of lysyl hydroxylase activity ([1]; 300 mM imidazole, 2 h on ice): almost complete inactivation | effect on GGT activity ([2]; 10 mM to 100 mM imidazole): no effect | inhibition at 300000 µM ([2]; 300 mM imidazole): 25% | GT activity ([3]; 10 mM imidazole (no inhibitor: 760.000)): 795.000 dpm/mg | GT activity ([3]; 100 mM imidazole (no inhibitor: 760.000)): 605.000 dpm/mg | inhibition at 300000 µM ([3]; 300 mM imidazole): 60% | GT activity ([3]; 300 mM imidazole (no inhibitor: 760.000)): 310.000 dpm/mg | GGT activity ([4]; 10 mM imidazole (no inhibitor: 667.000)): 583.000 dpm/mg | GGT activity ([4]; 100 mM imidazole (no inhibitor: 667.000)): 599.000 dpm/mg | inhibition at 300000 µM ([4]; 300 mM imidazole): ~30% | GGT activity ([4]; 300 mM imidazole (no inhibitor: 667.000)): 459.000 dpm/mg
SMILES: c1c[nH]cn1 [imidazole]

Reference: patent US7951562B2, “Method for glycosylating hydroxylysine residues in polypeptides or peptides” (Oulun Yliopisto, priority 2000, dated 2011)
